# Measurements from article PMC13198257, “An aerosolized dual-action autotaxin inhibitor-PPARγ agonist for the treatment of pulmonary fibrosis” (Cell Reports Medicine, 2026).
# Entries after “also recorded” stand apart in the source; their conditions may differ.
# How the values were obtained:
# [1] = target: T1, ATX (Homo sapiens, UniProt Q13822); experiment: Amplex Red assay: ATX inhibitory activity in vitro; type: biochemical; conditions: in vitro; for IC50: Amplex Red assay
# T1 construct: purchased Sino Biological 11308-H07H
# Description: (§1) ATX inhibitory activity in vitro of examined compounds was assessed with the Amplex Red assay,[32]^,[35]^,[36] as recently published in detail.[37] The assay was done in Amplex Red Assay buffer (Tris 50 mM, CaCl2 5 mM, pH 8). Briefly, 50 μL of increasing concentrations of each compound were placed in separate wells of a black 96-well plate. […] 50 μL of the LPC-containing assay buffer (200 μM) were added to the wells and incubated for 30 min at 37°C to allow the enzyme to initially interact with its substrate. 50 μL of the detection mix (Amplex Red 200 μM, choline oxidase 0.4 U/mL, horseradish peroxidase 4 U/mL) were added to the plate wells. Fluorescence was measured in a Tecan M200 Fluorimeter using excitation at 530 nm and reading at 590 nm, every 5 min for 30 min. The velocity of the reaction and the remaining ATX activity were calculated at the linear phase of the reaction. Dose-response inhibition graphs were plotted with GraphPad Software.
# [2] = target: T1, ATX; experiment: Mode of ATX inhibition, Lineweaver-Burk plots (various LPC concentrations); type: biochemical
# Description: To determine the mode of inhibition of ATX, various concentrations of TGZ, compound 5 and EL244 were tested against various LPC concentrations. Specifically, TGZ was tested against 6.25, 12.5, 25, 50 and 100 μM LPC, compound 5 was tested against 3.125, 6.25, 12.5, 25, 50 and 100 μM LPC, while EL244 was tested against 25, 50, 100 and 150 μM LPC. Lineweaver–Burk graphs depicting the reciprocal of velocity (1/V) against the reciprocal of substrate concentration (1/S) were plotted with GraphPad Software.
# [3] = target: T2, PPARγ LBD (Homo sapiens, UniProt P37231); experiment: Isothermal titration calorimetry (ITC); type: binding; conditions: for Kd: PPARγ LBD, 25°C
# T2 construct: using recombinant PPARγ LBD protein dissolved in a buffer; made in house
# T2 sequence (P37231 238-503 limits assumed): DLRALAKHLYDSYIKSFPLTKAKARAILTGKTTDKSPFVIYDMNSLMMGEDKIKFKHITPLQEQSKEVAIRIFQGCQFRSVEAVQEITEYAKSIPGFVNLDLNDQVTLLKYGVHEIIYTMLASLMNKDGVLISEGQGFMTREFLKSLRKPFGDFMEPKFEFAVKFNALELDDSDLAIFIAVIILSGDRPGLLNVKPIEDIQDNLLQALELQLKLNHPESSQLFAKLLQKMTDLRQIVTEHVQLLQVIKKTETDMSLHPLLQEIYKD
# Description: ITC was performed[49] on a TA Instruments Affinity ITC (TA Instruments, New Castle, Delaware, USA), using recombinant PPARγ LBD protein dissolved in a buffer containing 25 mM HEPES, 150 mM KF, 5 mM DTT, 10% w/v glycerol and 1% DMSO at pH 7.5. […] The titration was performed at 25°C with a stirring rate of 75 rpm. An interval of 300 s was maintained between injections. ITC raw data were analyzed with the NanoAnalyze software package (version 3.7.5). An independent binding model was used to fit the reaction enthalpy (ΔH), binding affinity constant (KD), and stoichiometry (n). Free energy change (ΔG) was calculated with the equation ΔG = −RT ln K and the entropy (ΔS) was calculated with the equation ΔG = ΔH−TΔS.
# [4] = AMP membrane permeability; type: in vitro ADME; conditions: 10 μΜ
# [5] = target: T3, PPARγ (Homo sapiens, UniProt P37231); experiment: PPARγ Gal4 hybrid reporter gene assay; type: cell-based; conditions: for EC50 / PPARγ fold activ. (max. activation): Gal4-hybrid reporter, HEK293T cells; for Selectivity for PPARγ: versus PPARα and PPARδ hybrid reporters
# T3 construct: expressed in transfected cells; host or cells: HEK293T
# T3 sequence (P37231 238-503 limits assumed): T2 sequence (P37231 238-503 limits assumed)
# Description: All well-established assays were performed following straightforward methodology.[49] Plasmids pFA-CMV-hPPARα-LBD, pFA-CMV-hPPARγ-LBD and pFA-CMV-hPPARδ-LBD code for the hinge region and ligand binding domain of the canonical isoform of the respective nuclear receptor and were used to express the Gal4 hybrid receptors. pFR-Luc (Stratagene, La Jolla, CA, USA) and pRL-SV40 (Promega, Madison, WI, USA) were used as Gal4-responsive reporter and as internal control in the hybrid reporter gene assays, respectively. HEK293T cells were seeded in 96-well plates (3×10^4 cells/well). Before transfection, the medium was changed to Opti-MEM without supplements, and transient transfection with the plasmids pFR-Luc, pRL-SV40, and one pFA-CMV-NR-LBD clone was carried out using Lipofectamine LTX reagent (Invitrogen, Carlsbad, CA, USA) according to the manufacturer’s protocol. […] Normalisation of transfection efficiency and cell growth was performed by dividing firefly luminescence by Renilla luminescence and multiplying the result by 1000, yielding relative light units (RLU). Fold activation was obtained by dividing the mean RLU of the test compound by the mean RLU of the untreated control.
# [6] = tested on: choline oxidase and horseradish peroxidase; experiment: Interference with the 2nd and 3rd reaction of the Amplex Red assay; type: biochemical
# Description: as §1
# Figure S3. Kinetic analysis of ATX inhibition. Related to Figures 3 and 4
# (B) Kinetics for the second (oxidation of choline catalysed by choline oxidase) and third reaction (the conversion of the
# Amplex substrate to the fluorescent resorufin catalysed by horseradish peroxidase, HRP) of the Amplex Red Lyso-
# phospholipase D assay for representative compounds (TGZ, 4, 5 and EL244). The first reaction includes the conversion of
# LPC to LPA catalysed by ATX.
# Kinetic graphs are indicative of three technical replicates. […]
SMILES,IC50 [1] [µM],Mode of ATX inhibition [2],Thermodynamics of binding to PPARγ-LBD [3],Kd [3] [µM],AMP [4] [cm/s],EC50 [5] [µM],PPARγ fold activ. (max. activation) [5] [fold],Selectivity for PPARγ [5],Interference on the 2nd and 3rd steps of the Amplex Red assay [6],"ATX inhibitory effect, fold better than 5 [1] [fold]","ATX inhibitory effect, fold better than GLPG1690 [1] [fold]","ATX inhibitory effect, fold better than TGZ [1] [fold]"
"O=C1NC(=O)C(Cc2ccc(OCCN3CCN(C(=O)OCc4cc(Cl)cc(Cl)c4)CC3)cc2)S1 (stereo not drawn) [Compound 5, 3,5-dichlorobenzyl4-(2-(4-((2,4-dioxothiazolidin-5-yl)methyl)phenoxy)ethyl)piperazine-1-carboxylate]",0.29,non-competitive,entropy-driven,0.6,3.7e-06,1.5,9 ± 1,selective PPARγ agonist,Minimal interference; also recorded: not involved at all in the second and third reaction,–,–,–
"O=C1NC(=O)C(Cc2ccc(OCCC3CCN(C(=O)OCc4cc(Cl)cc(Cl)c4)CC3)cc2)S1 (stereo not drawn) [EL244, 3,5-dichlorobenzyl 4-(2-(4-((2,4-dioxothiazolidin-5-yl)methyl)phenoxy)ethyl)piperidine-1-carboxylate]",0.05,competitive,enthalpy-driven,1.3,8e-07,1.3,17 ± 1,selectively,not involved at all in the second and third reaction,5,3,10
